# From US6420330B1, “Use of quaternary carboxylic acid alkanolamine ester salts as microbicide agents” (Cognis Deutschland GmbH, priority 1997, dated 2002)
# Columns and labels:
# Assay in all cases: DGHM suspension test, other bacteria and fungi
# Type in all cases: cell-based
# [1] = tested on: Microsporum gypseum
# Procedure: (§1) The effectiveness of the compound to be tested was determined by the suspension test in accordance with the guidelines of the Deutsche Gesellschaft for Hygiene and Mikrobiologie (DGHM). Test solutions containing quatemary carboxylic acid alkanolamine ester salts in the quantities shown in the Tables of 50, 100, 200, 400 and 800 mg/l were prepared using water with a hardness of 17° dH and optionally isopropanol. At room temperatures, quantities of 0.1 ml test germ suspension were pipetted into test tubes containing 10 ml of the test solutions described above and mixed. After various contact times of 5, 15, 30 and 60 minutes, 1 ml of material was taken from the test tubes by pipette and transferred to 9 ml inactivator solution (inactivators: 3.0% Tween, 0.3% lecithin, 0.1% histidine). After in activation for at least 5 and at most 30 minutes, the living germ count was determined by plating out onto casein peptone-soybean flour peptone (CaSo)-agar plates. Using a spiral plater, the inactivating mixture was directly plated out onto CaSo-agar. The samples were incubated for 24 to 72 hours at 37° C. and macroscopically evaluated for growth. The destruction time or the residual germ count was determined in this way. The germ count of an unchallenged water control is related to the germ count of the inactivated test solution taking the dilution into account. The higher the value, the better the microbicidal effect. The symbol < means that the logarithmic reductuon factor is below the indicated value or, in the case of the symbol >, above the indicated value. The abbreviation CU stands for “concentration used”. Methyl triethanolammonium dioctanoic acid ester methosulfate was tested as in A) against the bacteria
# [2] = tested on: Salmonella enteritidis
# Procedure: as §1
# [3] = tested on: Enterococcus faecium
# Procedure: as §1
# [4] = tested on: Trichophyton mentagrophytes
# Procedure: as §1
# [5] = tested on: Escherichia coli
# Procedure: as §1
smiles,measurement,setting,value
"CCCCCCCC(=O)OCC[N+](C)(CCO)CCOC(=O)CCCCCCC.COS(=O)(=O)[O-] [Example 11, Methyl triethanolammonium dioctanoic acid ester methosulfate]",logarithmic reduction rate,"[1]; 50 ppm, 5 Mins.",>3.52
same,logarithmic reduction rate,"[1]; 50 ppm, 15 Mins.",>3.58
same,logarithmic reduction rate,"[1]; 50 ppm, 60 Mins.",>3.62
same,logarithmic reduction rate,"[1]; 100 ppm, 5 Mins.",>3.52
same,logarithmic reduction rate,"[1]; 100 ppm, 15 Mins.",>3.58
same,logarithmic reduction rate,"[1]; 100 ppm, 60 Mins.",>3.62
same,logarithmic reduction rate,"[1]; 200 ppm, 5 Mins.",>3.52
same,logarithmic reduction rate,"[1]; 200 ppm, 15 Mins.",>3.58
same,logarithmic reduction rate,"[1]; 200 ppm, 60 Mins.",>3.62
same,logarithmic reduction rate,"[1]; 400 ppm, 5 Mins.",>3.52
same,logarithmic reduction rate,"[1]; 400 ppm, 15 Mins.",>3.58
same,logarithmic reduction rate,"[1]; 400 ppm, 60 Mins.",>3.62
same,killing of the fungus Microsporum gypseum,"[1]; concentration of 50 mg/l, shortest contact time",almost completely killed off
same,logarithmic reduction rate,"[2]; 50 ppm, 5 Mins.",<1.8
same,logarithmic reduction rate,"[2]; 50 ppm, 15 Mins.",3.29
same,logarithmic reduction rate,"[2]; 50 ppm, 60 Mins.",3.67
same,logarithmic reduction rate,"[2]; 100 ppm, 5 Mins.",3.96
same,logarithmic reduction rate,"[2]; 100 ppm, 15 Mins.",5.12
same,logarithmic reduction rate,"[2]; 100 ppm, 60 Mins.",>5.76
same,logarithmic reduction rate,"[2]; 200 ppm, 5 Mins.",4.88
same,logarithmic reduction rate,"[2]; 200 ppm, 15 Mins.",>5.77
same,logarithmic reduction rate,"[2]; 200 ppm, 60 Mins.",>5.76
same,logarithmic reduction rate,"[2]; 400 ppm, 5 Mins.",>5.8
same,logarithmic reduction rate,"[2]; 400 ppm, 15 Mins.",>5.72
same,logarithmic reduction rate,"[2]; 400 ppm, 60 Mins.",>5.76
same,logarithmic reduction rate,"[3]; 50 ppm, 5 Mins.",>6.3
same,logarithmic reduction rate,"[3]; 50 ppm, 15 Mins.",>5.88
same,logarithmic reduction rate,"[3]; 50 ppm, 60 Mins.",>5.96
same,logarithmic reduction rate,"[3]; 100 ppm, 5 Mins.",>6.3
same,logarithmic reduction rate,"[3]; 100 ppm, 15 Mins.",>5.88
same,logarithmic reduction rate,"[3]; 100 ppm, 60 Mins.",>5.96
same,logarithmic reduction rate,"[3]; 200 ppm, 5 Mins.",>6.3
same,logarithmic reduction rate,"[3]; 200 ppm, 15 Mins.",>5.88
same,logarithmic reduction rate,"[3]; 200 ppm, 60 Mins.",>5.96
same,logarithmic reduction rate,"[3]; 400 ppm, 5 Mins.",>6.3
same,logarithmic reduction rate,"[3]; 400 ppm, 15 Mins.",>5.88
same,logarithmic reduction rate,"[3]; 400 ppm, 60 Mins.",>5.96
same,logarithmic reduction rate,"[4]; 50 ppm, 5 Mins.",0.34
same,logarithmic reduction rate,"[4]; 50 ppm, 15 Mins.",0.95
same,logarithmic reduction rate,"[4]; 50 ppm, 60 Mins.",2.04
same,logarithmic reduction rate,"[4]; 100 ppm, 5 Mins.",0.38
same,logarithmic reduction rate,"[4]; 100 ppm, 15 Mins.",0.95
same,logarithmic reduction rate,"[4]; 100 ppm, 60 Mins.",2.05
same,logarithmic reduction rate,"[4]; 200 ppm, 5 Mins.",0.28
same,logarithmic reduction rate,"[4]; 200 ppm, 15 Mins.",0.92
same,logarithmic reduction rate,"[4]; 200 ppm, 60 Mins.",2.16
same,logarithmic reduction rate,"[4]; 400 ppm, 5 Mins.",0.35
same,logarithmic reduction rate,"[4]; 400 ppm, 15 Mins.",0.89
same,logarithmic reduction rate,"[4]; 400 ppm, 60 Mins.",2.29
same,destruction of Trichophyton mentagrophytes,[4]; long contact time (60 minutes),around 2 powers of ten
same,logarithmic reduction rate,"[5]; 50 ppm, 5 Mins.",4.12
same,logarithmic reduction rate,"[5]; 50 ppm, 15 Mins.",>5.62
same,logarithmic reduction rate,"[5]; 50 ppm, 60 Mins.",>5.76
same,logarithmic reduction rate,"[5]; 100 ppm, 5 Mins.",>5.58
same,logarithmic reduction rate,"[5]; 100 ppm, 15 Mins.",>5.62
same,logarithmic reduction rate,"[5]; 100 ppm, 60 Mins.",>5.76
same,logarithmic reduction rate,"[5]; 200 ppm, 5 Mins.",>5.58
same,logarithmic reduction rate,"[5]; 200 ppm, 15 Mins.",>5.62
same,logarithmic reduction rate,"[5]; 200 ppm, 60 Mins.",>5.76
same,logarithmic reduction rate,"[5]; 400 ppm, 5 Mins.",>5.58
same,logarithmic reduction rate,"[5]; 400 ppm, 15 Mins.",>5.62
same,logarithmic reduction rate,"[5]; 400 ppm, 60 Mins.",>5.76
